Common to all, as to settings: Mus musculus
In test [1] the test system is RAW264.7. The test can be described thus: Inhibition of COX2 expression in LPS-activated Raw 264.7 cells at 3 uM. The class given is functional.
Test [2] relates to RAW264.7. As to the kind of experiment: Decrease in COX2 level in LPS-activated Raw 264.7 cells. Type of test: functional, cell-based.
Test [3] relates to RAW264.7. The test can be described thus: Inhibition of iNOS expression in LPS-activated Raw 264.7 cells at 2 uM. Type of test: functional.
Test [4] concerns RAW264.7. As to the kind of experiment: Decrease in iNOS level in LPS-activated Raw 264.7 cells. The class given is functional, cell-based.

What is called inhibition is the percentage by which the read-out fell short of the control. Lower therefore signals a response near the control. Compound `C/C=C/c1ccc(Oc2ccc(O)cc2)c(C(C)CO)c1` (centres undefined) [RODGERSINOL] gave an inhibition at 3 µM in the test on RAW264.7 [1] of 50%. The Activity entry in the test with RAW264.7 [2] and with RAW264.7 [4] was “Dose-dependent effect” throughout. In the test on RAW264.7 [3], this compound gave an inhibition at 2 µM of 50%.

(Values after ChEMBL document CHEMBL1148679, “A novel iNOS and COX-2 inhibitor from the aerial parts of Rodgersia podophylla” (2006).)
